Consider 27 compounds from ChEMBL document CHEMBL1130257, “(Aryloxy)alkylamines as selective human dopamine D4 receptor antagonists: potential antipsychotic agents” (J Med Chem, 1997).

A value given as a limit tells only on which side of the number the result lay.

Experiment [1] has as its target T1, D(4) dopamine receptor (Homo sapiens, UniProt P21917).
T1 sequence (P21917 whole entry): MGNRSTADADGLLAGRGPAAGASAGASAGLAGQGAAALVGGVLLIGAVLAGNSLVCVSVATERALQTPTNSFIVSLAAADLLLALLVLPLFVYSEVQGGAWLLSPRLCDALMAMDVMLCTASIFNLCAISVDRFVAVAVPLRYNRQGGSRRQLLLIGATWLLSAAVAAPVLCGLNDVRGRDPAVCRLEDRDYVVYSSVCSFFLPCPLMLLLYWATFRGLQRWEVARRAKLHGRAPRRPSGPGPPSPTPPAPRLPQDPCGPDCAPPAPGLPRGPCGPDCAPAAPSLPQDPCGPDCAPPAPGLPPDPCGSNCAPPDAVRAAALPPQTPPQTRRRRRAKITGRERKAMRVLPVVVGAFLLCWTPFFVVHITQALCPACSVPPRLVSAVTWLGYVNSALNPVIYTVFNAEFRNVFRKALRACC
Put plainly: biochemical.
Description: Binding affinity to recombinant human dopamine receptor D4 expressed in CHO cells by displacement of [3H]spiperone

For experiment [2], the target named is D(3) dopamine receptor (Homo sapiens, UniProt P35462). Put plainly: biochemical.
D(3) dopamine receptor, sequence (P35462 whole entry): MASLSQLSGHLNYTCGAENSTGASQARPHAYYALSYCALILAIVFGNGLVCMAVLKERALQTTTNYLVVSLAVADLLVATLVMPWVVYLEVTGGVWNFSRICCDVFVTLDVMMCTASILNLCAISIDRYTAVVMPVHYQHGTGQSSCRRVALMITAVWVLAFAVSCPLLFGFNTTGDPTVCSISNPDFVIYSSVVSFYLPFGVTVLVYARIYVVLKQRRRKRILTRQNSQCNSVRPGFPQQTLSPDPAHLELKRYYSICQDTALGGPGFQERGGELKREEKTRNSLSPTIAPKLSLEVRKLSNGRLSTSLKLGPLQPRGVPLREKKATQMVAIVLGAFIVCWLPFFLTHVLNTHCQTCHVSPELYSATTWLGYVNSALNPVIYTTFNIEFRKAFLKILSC
Description: Binding affinity against cloned human dopamine receptor D3 expressed in Chinese hamster ovary (CHO) K-1 cells by displacement of [3H]spiperone.

For `Clc1ccc(OCCNCCCOc2ccc(Br)cc2)cc1`, the affinity in experiment [1] corresponds to a Ki of 38 nM.

The compound `Cc1cccc(OCCNCCCOc2ccccc2)c1` had a Ki in experiment [1] of 0.46 nM.

Take `COc1ccc(OCCNCCCOc2ccccc2)cc1`: the Ki in experiment [2] came out at 369 nM; in experiment [1], 5.4 nM.

`Cc1ccc(SCCNCCCOc2ccccc2)cc1`: in experiment [1], the inhibition constant Ki is 30 nM.

The compound `Cc1ccccc1OCCNCCCOc1ccccc1` gave a Ki in experiment [1] of 74 nM.

Take `c1ccc(OCCCNCCOc2ccccc2)cc1`: the Ki in experiment [2] came to 136 nM; in experiment [1], 2 nM.

As to `Cc1ccc(OCCNCCCOc2ccccc2)cc1`, the figures for the Ki in experiment [2] and in experiment [1] were 169 nM and 0.52 nM, respectively.

The compound `Clc1cccc(OCCNCCCOc2ccccc2)c1` came in with a Ki in experiment [1] of 0.31 nM.

For `Fc1ccc(OCCCNCCOc2ccc(Cl)cc2)cc1`, the Ki in experiment [2] came out at 98 nM; in experiment [1] it was 0.84 nM.

Consider `Cc1ccc(OCCNCCCOc2ccccc2)cc1C`, for which the figures for the Ki in experiment [2] and in experiment [1] were 73 nM and 0.35 nM, respectively.

`c1ccc(CCCNCCCOc2ccccc2)cc1`: the figures for the Ki in experiment [2] and in experiment [1] were 17 nM and 3.3 nM, respectively.

In experiment [1], `Clc1ccc(SCCNCCCOc2ccccc2)cc1` came in with an inhibition constant Ki of 33 nM.

With `Cc1ccc(OCCCNCCOc2ccc(C)cc2)cc1`, the Ki in experiment [2] came to 235 nM; in experiment [1] it was 11 nM.

Regarding `Cc1ccc(OCCNCCCSc2ccccc2)cc1`, the results for the Ki in experiment [2] and in experiment [1] were 56 nM and 0.8 nM, respectively.

With `O=C(O)c1ccc(OCCNCCCOc2ccccc2)cc1`, the Ki in experiment [1] was above 1000 nM.

`Cc1ccc(OCCCNCCOc2ccccc2)cc1` registered a Ki in experiment [1] of 2.7 nM.

`Cc1ccc(OCCNCCCOc2ccc(F)cc2)cc1`: the values for the Ki in experiment [2] and in experiment [1] were 232 nM and 0.96 nM, respectively.

In the case of `Clc1ccccc1OCCNCCCOc1ccccc1`, the Ki in experiment [2] is 17 nM; in experiment [1], 4.4 nM.

Consider `Cc1ccc(OCCCNCCOc2ccc(Cl)cc2)cc1`, for which the Ki in experiment [2] was found to be 177 nM; in experiment [1], 5.6 nM.

In the case of `Cc1ccc(OCCNCCCOc2ccccc2)cc1Cl`, the Ki in experiment [2] is 3.9 nM; in experiment [1] it was 0.52 nM.

For the compound `O=[N+]([O-])c1ccc(OCCNCCCOc2ccccc2)cc1`, the Ki turned out to be 345 nM in experiment [2] and 4.4 nM in experiment [1].

Take `Oc1ccc(OCCNCCCOc2ccccc2)cc1`: the Ki worked out at 236 nM in experiment [2] and 3.1 nM in experiment [1].

For `Cc1ccc(OCCNCCCOc2ccccc2C)cc1`, the inhibition constant (Ki) worked out at 381 nM in experiment [2] and 1.1 nM in experiment [1].

In the case of `Cc1ccc(CCCNCCCOc2ccccc2)cc1`, affinity in experiment [1] was put at a Ki of 4.7 nM.

On to `Clc1ccc(OCCNCCCSc2ccccc2)cc1`, for which the Ki stood at 95 nM in experiment [2] and 1.4 nM in experiment [1].

`Cc1ccc(OCCNCCCOc2ccc(Br)cc2)cc1`: the Ki in experiment [2] amounted to 1700 nM; in experiment [1], 27 nM.

Take `Cc1ccc(OCCNCCCOc2cccc(C)c2)cc1`: the Ki was 192 nM in experiment [2] and 1.2 nM in experiment [1].
